Laboratory results: patent US20080269286A1, “Disubstituted Phenylpiperidines as Modulators of Cortical Catecholaminergic Neurotransmission” (priority 2005, published 2008)
Where a name gives a salt, the structure may show the parent alone. Values belong to the molecule of their own block, whether it stands above or below them.

What was measured:
[1] = system: DOPAC levels (3,4-dihydroxyphenylacetic acid) in the rat striatum; test: In vivo test: neurochemistry, tissue content of DOPAC in the striatum; conditions: sc, 1 h, 100 μmol/kg s.c., 60 minutes after administration, %-increase from control value
Description: In short, male Sprague-Dawely rats are administered the test compound 60 minutes prior to decapitation. The brain is rapidly taken out and dissected. The striatum is rapidly frozen and subsequently quantitatively analysed with respect to its content of DOPAC by means of HPLC and electrochemical detection. The number of animals used for each test compound/vehicle is 4/group.
Male Sprague-Dawley rats weighing 220-320 g are used throughout the experiments. Sixty (60) minutes following administration of the test substance, the rats are decapitated. Directly after decapitation the brain is removed from the skull and put on a glass petri bowl filled with ice. The limbic system (containing the nucleus accumbens—both the core and shell, most parts of the olfactory tubercle and ventral pallidum) is dissected using two thin, angled tweezers and put directly on foil on dry ice (carbon dioxide −78° C.). The striatum and cortex are then dissected and also put on dry ice. The time from decapitation until the last tissue is dissected varies from four to six minutes. The tissue is weighed using a Sartorius BP3105 connected to a computer and packed in labelled tin foil, then stored in an −80° C. freezer. Great care is taken in order to keep the tissue frozen until the time of neurochemical analysis. Each brain part is subsequently analyzed with respect to its content of monoamines and their metabolites.
The monoamine transmitter substances (NE (norepinephrine), DA (dopamine), 5-HT (serotonin)) as well as their amine (NM (normethanephrine), 3-MT (3-methoxytyramine)) and acid (DOPAC (3,4-dihydroxyphenylacetic acid), 5-HIAA (5-hydroxyindoleacetic acid), HVA (homovanillic acid)) metabolites are quantified in brain tissue homogenates by HPLC separations and electrochemical detection.
The analytical method is based on two chromatographic separations dedicated for amines or acids. Two chromatographic systems share a common auto injector with a 10-port valve and two sample loops for simultaneous injection on the two systems. Both systems are equipped with a reverse phase column (Luna C18(2), dp 3 μm, 50*2 mm i.d., Phenomenex) and electrochemical detection is accomplished at two potentials on glassy carbon electrodes (MF-1000. Bioanalytical Systems, Inc.). The column effluent is passed via a T-connection to the detection cell or to a waste outlet. This is accomplished by two solenoid valves, which block either the waste or detector outlet. By preventing the chromatographic front from reaching the detector, better detection conditions are achieved. […] Detection potentials relative to Ag/AgCl reference are 0.45 and 0.60V. […] Detection potentials relative to Ag/AgCl reference are 0.45 and 0.65V.

[2] = system: extracellular levels of dopamine and norepinephrine; test: In vivo test: microdialysis, extracellular monoamines in striatum and prefrontal cortex; set-up: species or system rat; conditions: awake and freely moving rats; for levels of dopamine and norepinephrine in the cortex (microdialysis): 50 μmol/kg s.c., pf. cortex, FIGS. 11-24
Description: The microdialysis technique (Ungerstedt, Herrera-Marschitz et al. 1982) is a well established technique for measuring extracellular levels of neurotransmitters (Ungerstedt 1991). The microdialysis technique was used to measure the effect of drugs upon the monoamine transmitters. The appended graphs (FIGS. 9 and 10) show the effects of one established antidepressant (mirtazapine) upon monoamines in the striatum and frontal cortex, as well as for seven compounds claimed in the present invention (FIGS. 11-24; Examples 1, 3, 4, 6, 9, 10 and 11). The number of animals (n) used for each compound tested is noted in the figure legend.
Male Sprague-Dawley rats weighing 220-320 g were used throughout the experiments. Before the experiment the animals were group housed, five animals in each cage, with free access to water and food. The animals were housed at least one week after arrival prior to surgery and use in the experiments. Each rat was used only once for microdialysis. We use a modified version (Waters, Lofberg et al. 1994) of the I-shaped probe (Santiago and Westerink 1990). The dialysis membrane we use is the AN69 polyacrylonitrile/sodium methalylsulfonate copolymer (HOSPAL; o.d./i.d. 310/220 μm: Gambro, Lund, Sweden). In the dorsal striatum we use probes with an exposed length of 3 mm of dialysis membrane and in the prefrontal cortex the corresponding length is 2.5 mm. The rats were operated under isoflurane inhalation anesthesia while mounted into a Kopf stereotaxic instrument. Coordinates were calculated relative to bregma; dorsal striatum AP+1, ML±2.6, DV−6.3; Pf cortex, AP+3.2, 8° ML±1.2, DV−4.0 according to (Paxinos and Watson 1986). The dialysis probe was positioned in a burr hole under stereotaxic guidance and cemented with phosphatine dental cement.
The rats were housed individually in cages for 48 h before the dialysis experiments, allowing them to recover from surgery and minimizing the risk of drug interactions with the anaesthetic during the following experiments. During this period the rats had free access to food and water. On the day of experiment the rats were connected to a micro perfusion pump via a swivel and were replaced in the cage where they could move freely within its confinements. The perfusion medium was a Ringer's solution containing in mmol/l: NaCl; 140, CaCl2; 1.2, KCl; 3.0, MgCl2; 1.0 and ascorbic acid; 0.04 according to (Moghaddam and Bunney 1989). The pump was set to a perfusion speed of 2 μl/min and 40 μl samples were collected every 20 min.
30 μl of each sample was injected into the chromatograph. On a 10-port injector (Valco C10W), with two sample loops mounted in series (2 μl and 20 μl), each brain dialysate sample is loaded in both loops simultaneously. When the valve is switched to inject the main part of the 20 μl sample is introduced into a reverse-phase ion-pairing system for dopamine (DA), norepinephrine (NE), normetanephrine (NM), 3-methoxytyramine (3-MT) and serotonin (5-hydroxytryptamine, 5-HT) determination (large loop), while a small fraction (2 μl, from the small loop) is introduced on a reverse-phase column for the chromatography of the acidic monoamine metabolites 3,4-di-hydroxyphenylacetic acid (DOPAC), homovanillic acid (HVA) and 5-hydroxyindoleacetic acid (5-HIAA). The currents generated by the two EC detectors are converted to digital data and evaluated using Chromelion software (Dionex, Sunnyvale, Calif.) on a PC. The method sample turn over time was 4.5 min and two parallel experiments are normally analysed simultaneously on the system. After the experiment the rats were uncoupled from the perfusion pump and decapitated. Their brains were rapidly taken out and fixed in Neo-fix solution (Kebo-lab, Sweden) for subsequent inspection of probe localisation. The Animal Ethics Committee in Göteborg, Sweden approved the procedures applied in these experiments. • Moghaddam, B. and B. S. Bunney (1989). […]

SMILES: Fc1cc(Cl)cc(C2CCNCC2)c1 (as salt: hydrochloric acid salt) [Example 10, 4-(3-CHLORO-5-FLUOROPHENYL)PIPERIDINE]
melting point: 243 °C

SMILES: CCCN1CCC(c2ccc(F)c(C(F)(F)F)c2)CC1 [reference compound]
change in vivo at 100 µmol/kg [1]: 94%

SMILES: Fc1ccc(C2CCNCC2)cc1C(F)F
change in vivo at 100 µmol/kg [1]: 17%

melting point: 195 to 196 °C
SMILES: Fc1ccc(C2CCNCC2)cc1C(F)(F)F (as salt: hydrochloric acid salt)

SMILES: Fc1ccc(C2CCNCC2)cc1F [Example 4, 4-(3,4-DIFLUOROPHENYL)PIPERIDINE]
levels of dopamine and norepinephrine in the cortex (microdialysis) [2]: elevate the levels of dopamine and norepinephrine in the cortex

SMILES: Fc1ccc(C2CCNCC2)cc1Cl (as salt: oxalic acid salt) [Example 9, 4-(3-CHLORO-4-FLUOROPHENYL)PIPERIDINE]
melting point: 147 °C

SMILES: CCN1CCC(c2cc(F)cc(C(F)(F)F)c2)CC1 [reference compound]
change in vivo at 100 µmol/kg [1]: 232%

SMILES: Fc1ccc(C2CCNCC2)c(F)c1 [Example 1, 4-(2,4-DIFLUOROPHENYL)PIPERIDINE]
levels of dopamine and norepinephrine in the cortex (microdialysis) [2]: elevate the levels of dopamine and norepinephrine in the cortex

SMILES: CN1CCC(c2ccc(F)cc2F)CC1 (as salt: hydrochloric acid salt) [Example 11, 4-(2,4-DIFLUOROPHENYL)-1-METHYLPIPERIDINE]
melting point: 198 °C

SMILES: Fc1cc(Cl)cc(C2CCNCC2)c1 [drawing 18]
change in vivo at 100 µmol/kg [1]: -26%

SMILES: CCCN1CCC(c2cccc(S(C)(=O)=O)c2)CC1 [reference compound]
change in vivo at 100 µmol/kg [1]: 114%

SMILES: Fc1cc(F)cc(C2CCNCC2)c1 [drawing 15]
change in vivo at 100 µmol/kg [1]: -19%

SMILES: Fc1cc(F)cc(C2CCNCC2)c1 [Example 3, 4-(3,5-DIFLUOROPHENYL)PIPERIDINE]
levels of dopamine and norepinephrine in the cortex (microdialysis) [2]: elevate the levels of dopamine and norepinephrine in the cortex

SMILES: Fc1ccc(C2CCNCC2)cc1Cl [Example 9, 4-(3-CHLORO-4-FLUOROPHENYL)PIPERIDINE]
levels of dopamine and norepinephrine in the cortex (microdialysis) [2]: elevate the levels of dopamine and norepinephrine in the cortex

SMILES: CN1CCN2c3ncccc3Cc3ccccc3C2C1 (centres unmarked) [mirtazapine, reference compound]
extracellular norepinephrine and dopamine in the cortex (microdialysis) ([2]; 10 mg/kg s.c., p.f. cortex, FIG. 10): increase predominantly extracellular norepinephrine and dopamine in the cortex

SMILES: Fc1ccc(C2CCNCC2)cc1F (as salt: hydrochloric acid salt) [Example 4, 4-(3,4-DIFLUOROPHENYL)PIPERIDINE]
melting point: 255 to 256 °C

SMILES: CCN1CCC(c2ccc(F)c(C(F)(F)F)c2)CC1 [reference compound]
change in vivo at 100 µmol/kg [1]: 75%

SMILES: Fc1cc(Cl)cc(C2CCNCC2)c1 [Example 10, 4-(3-CHLORO-5-FLUOROPHENYL)PIPERIDINE]
levels of dopamine and norepinephrine in the cortex (microdialysis) [2]: elevate the levels of dopamine and norepinephrine in the cortex

SMILES: CN1CCC(c2ccc(F)cc2F)CC1 [drawing 19]
change in vivo at 100 µmol/kg [1]: -41%

SMILES: Fc1ccc(C2CCNCC2)cc1Cl [drawing 17]
change in vivo at 100 µmol/kg [1]: -29%

SMILES: CCCN1CCC(c2ccc(Cl)c(C(F)(F)F)c2)CC1 [reference compound]
change in vivo at 100 µmol/kg [1]: 94%

SMILES: CCCN1CCC(c2cc(F)cc(C(F)(F)F)c2)CC1 [reference compound]
change in vivo at 100 µmol/kg [1]: 239%

SMILES: Fc1cc(F)cc(C2CCNCC2)c1 (as salt: fumaric acid salt) [Example 3, 4-(3,5-DIFLUOROPHENYL)PIPERIDINE]
melting point: 178 °C

SMILES: Fc1ccc(C2CCNCC2)c(F)c1 [drawing 13]
change in vivo at 100 µmol/kg [1]: -36%

SMILES: Clc1ccc(C2CCNCC2)cc1Cl [Example 6, 4-(3,4-DICHLOROPHENYL)PIPERIDINE]
levels of dopamine and norepinephrine in the cortex (microdialysis) [2]: elevate the levels of dopamine and norepinephrine in the cortex

SMILES: CN1CCC(c2ccc(F)cc2F)CC1 [Example 11, 4-(2,4-DIFLUOROPHENYL)-1-METHYLPIPERIDINE]
levels of dopamine and norepinephrine in the cortex (microdialysis) [2]: elevate the levels of dopamine and norepinephrine in the cortex

SMILES: Fc1ccc(C2CCNCC2)c(F)c1 (as salt: hydrochloric acid salt) [Example 1, 4-(2,4-DIFLUOROPHENYL)PIPERIDINE]
melting point: 256 to 258 °C

SMILES: Clc1ccc(C2CCNCC2)cc1Cl (as salt: hydrochloric acid salt) [Example 6, 4-(3,4-DICHLOROPHENYL)PIPERIDINE]
melting point: 170 °C

SMILES: Clc1ccc(C2CCNCC2)cc1Cl [drawing 16]
change in vivo at 100 µmol/kg [1]: -14%
